Source: patent US20090163523A1, “Combinations comprising a s1p receptor agonist and a jak3 kinase inhibitor” (priority 2004, published 2009)
Values after ≈ are worked out from the molar mass of the structure shown.

System: donor heart graft
Assay: Rat heart transplantation, graft survival
Format: in vivo
Conditions: 672 h; rat heart transplant; blood concentration; read-out: EC50 (drug concentration in blood at which 50% of the animals maintain their graft for >28 days)
Procedure: The aorta is ligated and divided distal to the first branch and the brachiocephalic trunk is divided at the first bifurcation. The left pulmonary artery is ligated and divided and the right side divided but left open. All other vessels are dissected free, ligated and divided and the donor heart is removed into iced saline.
The recipient is prepared by dissection and cross-clamping of the infra-renal abdominal aorta and vena cava. The graft is implanted with end-to-side anastomoses, using 10/0 monofilament suture, between the donor brachiocephalic trunk and the recipient aorta and the donor right pulmonary artery to the recipient vena cava. The clamps are removed, the graft tethered retroabdominally, the abdominal contents washed with warm saline and the animal is closed and allowed to recover under a heating lamp. Graft survival is monitored by daily palpation of the beating donor heart through the abdominal wall. Rejection is considered to be complete when heart beat stops.

Question: How did the EC50 turn out when `C[C@@H]1CCN(C(=O)CC#N)C[C@@H]1N(C)c1ncnc2[nH]ccc12` [CP-690,550 mono-citrate, 3-{(3R,4R)-4-methyl-3-[methyl-(7H-pyrrolo[2,3-d]pyrimidin-4-yl)-amino]-piperidin-1-yl}-3-oxo-propionitrile] was run?
Answer: 0.06 µg/mL (≈ 0.192 µM)
